Six molecules from patent publication US7897602B2, “Indolinone compounds as kinase inhibitors” (Development Center for Biotechnology, priority 2009, dated 2011) can be followed below.

The structures appear in SMILES notation.

Series [1] concerns the target T1, Aurora A kinase (Homo sapiens, UniProt O14965).
T1 construct: purchased Upstate
T1 sequence (O14965 1-403): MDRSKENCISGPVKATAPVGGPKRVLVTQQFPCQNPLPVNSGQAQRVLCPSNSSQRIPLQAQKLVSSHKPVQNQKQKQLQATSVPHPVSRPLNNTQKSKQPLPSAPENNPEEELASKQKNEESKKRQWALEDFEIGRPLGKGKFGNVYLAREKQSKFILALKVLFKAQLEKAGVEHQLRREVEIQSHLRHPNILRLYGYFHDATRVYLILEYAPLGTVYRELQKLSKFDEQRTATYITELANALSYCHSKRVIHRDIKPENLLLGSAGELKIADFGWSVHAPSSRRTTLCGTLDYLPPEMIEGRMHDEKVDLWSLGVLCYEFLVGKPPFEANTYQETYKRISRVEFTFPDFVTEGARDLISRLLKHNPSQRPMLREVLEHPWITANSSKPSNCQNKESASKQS
Briefly: Aurora A kinase assay ([γ-33P]ATP, CHOCKtide substrate). The series is classed as biochemical. To be noted: for inhibition at 1 µM: 1.0 μM test compound. In outline: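 Radiometric filter-binding format: 33P incorporation into CHOCKtide counted after acid stop and filtration. Reactions ran 30 min at 33 °C, Aurora A with 10 μM ATP, Aurora B with 40 μM ATP. IC50 taken as concentration giving half-maximal kinase inhibition.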

Series [2] deals with T2, VEGFR2 kinase (Homo sapiens, UniProt P35968).
T2 construct: recombinant N-terminal 6×His-tagged VEGFR2 kinase domain construct expressed by baculovirus; 6xHis (N); made in house
T2 sequence (P35968 834-1162 limits assumed): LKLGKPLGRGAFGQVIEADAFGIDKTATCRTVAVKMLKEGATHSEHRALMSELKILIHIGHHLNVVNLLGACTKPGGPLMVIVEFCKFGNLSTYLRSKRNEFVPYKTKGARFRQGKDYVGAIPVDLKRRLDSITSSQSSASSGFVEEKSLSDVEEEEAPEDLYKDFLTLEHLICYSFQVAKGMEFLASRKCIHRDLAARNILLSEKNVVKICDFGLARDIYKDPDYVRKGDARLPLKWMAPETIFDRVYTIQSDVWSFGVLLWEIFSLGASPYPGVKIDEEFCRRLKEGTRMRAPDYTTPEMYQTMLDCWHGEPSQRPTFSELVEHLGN
The series is described as follows: VEGFR2 kinase assay (33P incorporation into Poly(Glu-Tyr)). Particulars: 500 nM test compound; read-out: Inhibition at 500 nM (%) VEGFr-2. It counts as biochemical. The gist of the method: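 Recombinant baculovirus-expressed N-terminal His6-tagged VEGFR2 kinase domain (6.25 ng) phosphorylated poly(Glu-Tyr) 4:1 with 100 μM ATP plus [33P]-γ-ATP in MOPS pH 7.0, 30 °C, 30 min. Test compound was at 500 nM (4% DMSO). Filter-retained radioactivity relative to DMSO control gave % inhibition.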

Series [3] deals with COLO 205 tumor cells. Briefly: In vivo anti-cancer activity, COLO 205 subcutaneous tumor model. To be noted: COLO 205 s.c. tumors in NOD/SCID mice; i.v. 5, 10 or 20 mg/kg qd × 14. As for the experimental part:
(§1) COLO 205 (1×10^6 cell/mouse) tumor cells were subcutaneously injected into the right flank of 5 week old male NOD/SCID mice (BioLASCO, Taiwan). Tumor volume was measured with a digital caliper once tumor was palpable (within 10 to 15 days after implantation). Compound treatment was started after 1-3 weeks when the tumors had reached an average volume of ˜50 to 100 mm^3. Mice were divided into 5 groups as listed in Table 4 below and were given intravenous injections with test compound at different dosage (5 mg/kg, 10 mg/kg, or 20 mg/kg), SU11248 (20 mg/kg, positive control), or vehicle control (DMSO:Cremophor:PBS (pH 7.4)=[…]) one time every day. The test compound, DCB-70055, was formulated in a solution of 5% DMSO, 10% Cremophor, and 85% PBS. The positive control, SU11248, was dissolved in 100% PBS. Body weights of the mice were measured every two to three days and the tumor sizes in different groups of mice were measured by digital caliper every two to three days.

Series [4] is described as follows: Body weight of mice in the COLO 205 tumor study. The series is classed as in vivo. To be noted: NOD/SCID mice with COLO 205 tumors; i.v. 5, 10 or 20 mg/kg qd × 14. As to the method:
as §1

Regarding `O=C(O)CCc1c(/C=C2\C(=O)Nc3ccc(F)cc32)[nH]c2c1C(=O)CCC2` [DCB-70055, (Z)-5-fluoro-3-((3-carboxyethyl-4-oxo-4,5,6,7-tetrahydro-1H-indol-2-yl)methylene)indolin-2-one], in series [1], the half-maximal inhibitory concentration (IC50) turned out to be 178 nM and the inhibition at 1 µM was determined as 79.8%. In addition, the inhibition at 0.5 µM in series [2] worked out at 91.2%. Further, in series [3], the “tumor growth in vivo” value is listed as “inhibited tumor growth in vivo”. For the same molecule, in series [4], the “weight loss (body weight)” value was “without inducing significant weight loss”.
Turning to `CCOC(=O)CCc1c(/C=C2\C(=O)Nc3ccc(NC(=O)c4ccc([N+](=O)[O-])cc4)cc32)[nH]c2c1C(=O)CCC2` [DCB-70140, (Z)-ethyl 3-(2-((5-(4-nitrobenzamido)-2-oxoindolin-3-ylidene)methyl)-4-oxo-4,5,6,7-tetrahydro-1H-indol-3-yl)propanoate], in series [1], 1 µM produced 31.1% inhibition. In addition, in series [2], the inhibition at 0.5 µM is 27.6%.
Regarding `CCOC(=O)CCc1c(/C=C2\C(=O)Nc3ccc(NS(=O)(=O)c4ccc(F)cc4)cc32)[nH]c2c1C(=O)CCC2` [DCB-70144, (Z)-ethyl 3-(2-((5-(4-fluorophenylsulfonamido)-2-oxoindolin-3-ylidene)methyl)-4-oxo-4,5,6,7-tetrahydro-1H-indol-3-yl)propanoate], in series [1], the IC50 was 270 nM and the inhibition at 1 µM was found to be 82%. For the same molecule, the inhibition at 0.5 µM in series [2] amounted to 40.8%.
In series [1], `O=C(O)CCc1c(/C=C2\C(=O)Nc3ccc(NS(=O)(=O)c4ccc(F)cc4)cc32)[nH]c2c1C(=O)CCC2` [DCB-70145, (Z)-3-(2-((5-(4-fluorophenylsulfonamido)-2-oxoindolin-3-ylidene)methyl)-4-oxo-4,5,6,7-tetrahydro-1H-indol-3-yl)propanoic acid] displayed an IC50 of 45.7 nM and an inhibition at 1 µM of 90.3%. Moreover, the inhibition at 0.5 µM in series [2] came out at 66.6%.
The corresponding values for `CCOC(=O)CCc1c(/C=C2\C(=O)Nc3ccc(NS(=O)(=O)c4ccccc4)cc32)[nH]c2c1C(=O)CCCC2` [DCB-70146, (Z)-ethyl 3-(4-oxo-2-((2-oxo-5-(phenylsulfonamido)indolin-3-ylidene)methyl)-1,4,5,6,7,8-hexahydrocyclohepta[b]pyrrol-3-yl)propanoate] are 86.3 nM, 81.3% and 59.7%.
The corresponding values for `O=C(O)CCc1c(/C=C2\C(=O)Nc3ccc(NS(=O)(=O)c4ccccc4)cc32)[nH]c2c1C(=O)CCCC2` [DCB-70147, (Z)-3-(4-oxo-2-((2-oxo-5-(phenylsulfonamido)indolin-3-ylidene)methyl)-1,4,5,6,7,8-hexahydrocyclohepta[b]pyrrol-3-yl)propanoic acid] are 68.4 nM, 91.9% and 71.3%.

For orientation: IC50 means the concentration at which inhibition is half-maximal. A high value points to weaker potency. By inhibition is commonly meant the drop in the measured response relative to a control, in per cent.
